Legend:
sulphonamide antibodies [1] = test: Multi-sulphonamide competitive immunoassay in microchannels, chemiluminescent CCD detection (Example 3); format: binding; settings: microchannel device, 2 minutes incubation
Description: In contrast to Example 1, a multi-sulphonamide assay has also been conducted using microchannels. The device is illustrated in Figure 11. In this Example, the reagent addition reservoirs 21 are 2 mm x 2 mm, and 300 µm deep (vol. 1.2 µl), the channels 23 are each 5 mm long, 200 µm wide and 100 µm deep (vol. 100 nl), and the reservoir 24 is 1.9 mm x 8.6 mm, and 300 µm deep (vol. 4.9 µl).
The chemical modification of the surface was performed as described in Example 1. Antibody was added to each of the channels and incubated for 2 hours at 37°C. The substrates were then blocked and washed as for Example 1.
A multi-sulphonamide standard (200 µl) and sulphonamide horseradish pexoxidase conjugates (100 µl) were mixed. 1 µl of the resultant reagent was pipetted into each of the reservoirs supplying the antibody-coated channel for each sulphonamide. The standards contained 10 or 100 ng/ml of all the sulphonamides as appropriate.
The reagent flowed by capillary action. After incubation for 2 minutes, the substrate was washed 5 times with PBS/PEG and chemiluminescent reagent [luminol (1.4 mM)/urea hydrogen peroxide (9.6 mM)] was added.
The devices were imaged using a CCD camera with an exposure time of up to 4 minutes.

sulphonamide antibodies [2] = test: Multi-sulphonamide competitive immunoassay, antibodies on APTES ceramic substrates with dihydrazide linker, with or without periodate activation; format: binding
Description: Multi-sulphonamide standards (200 µl) and a cocktail of sulphonamide horseradish peroxidase conjugates (100 µl) were added to the reaction wells containing the device as appropriate and incubated for 15 minutes at room temperature. The standards contained 5, 10, 50 and 100 ng/ml for each of the 12 sulphonamides.
Thereafter the multi-sulphonamide devices were washed with PBS/PEG buffer to remove excess reagents and 300 µl chemiluminescent substrate [luminol (1.4mM)/urea hydrogen peroxide (9.6mM)] per device was introduced. The devices were imaged using a CCD camera with an exposure time of up to 4 minutes. Standard curves were obtained for each of the 12 individual sulphonamides. Calibration curves for each of the 12 individual sulphonamides are represented graphically in Figure 15. The % B/Bo value plotted on the Y-axis represents the % […] of the zero standard RLU (Relative light unit) value caused by each individual sulphonamide standard (plotted on the X-axis as log10).
In a further example, ceramic substrates silanated with APTES were reacted with a dihydrazide linker. Sulphonamide antibodies were treated with sodium periodate to render them reactive towards the hydrazide linker. Control sulphonamide antibodies were simply dialysed against sodium acetate buffer pH 5.5. The RLU results are shown in Tables 4 (not treated) and 5 (treated by periodate method). […] The control antibodies (no periodate activation) gave very poor standard curves when compared to the covalently immobilised sulphonamide antibodies.

[3] = 10 ng/ml standard, antibodies treated by periodate method, covalently immobilised (Table 5)
[4] = 10 ng/ml standard, control antibodies not treated with periodate (Table 4)
[5] = 100 ng/ml standard, antibodies treated by periodate method, covalently immobilised (Table 5)
[6] = 100 ng/ml standard, control antibodies not treated with periodate (Table 4)

| SMILES | % B/Bo (sulphonamide antibodies [1]; 10 ng/ml standard) [%] | % B/Bo (sulphonamide antibodies [1]; 100 ng/ml standard) [%] | % B/Bo (sulphonamide antibodies [2]; [3]) [%] | % B/Bo (sulphonamide antibodies [2]; [4]) [%] | % B/Bo (sulphonamide antibodies [2]; [5]) [%] | % B/Bo (sulphonamide antibodies [2]; [6]) [%] |
| --- | --- | --- | --- | --- | --- | --- |
| Nc1ccc(S(=O)(=O)Nc2cnc3ccccc3n2)cc1 [Sulphaquinoxaline, sulphaquinoxaline] | 56 | 24 | 58 | 79 | 53 | 93 |
| Cc1nnc(NS(=O)(=O)c2ccc(N)cc2)s1 [Sulphamethizole, sulphamethizole] | – | – | 33 | 36 | 28 | – |
| Cc1noc(NS(=O)(=O)c2ccc(N)cc2)c1C [Sulphisoxazole, sulphisoxazole] | – | – | 27 | 23 | 9 | – |
| COc1ncnc(NS(=O)(=O)c2ccc(N)cc2)c1OC [Sulphadoxine, sulphadoxine] | – | – | 31 | 51 | 20 | – |
| Cc1ccnc(NS(=O)(=O)c2ccc(N)cc2)n1 [Sulphamerazine, sulphamerazine] | 40 | 22 | 43 | 52 | 26 | 56 |
| Nc1ccc(S(=O)(=O)Nc2nccs2)cc1 [Sulphathiazole, sulphathiazole] | – | – | 32 | 28 | 16 | – |
| Nc1ccc(S(=O)(=O)Nc2ccc(Cl)nn2)cc1 [Sulphachloropyridazine, sulphachloropyridazine] | – | – | 30 | 24 | 8 | – |
| Cc1cc(C)nc(NS(=O)(=O)c2ccc(N)cc2)n1 [Sulphamethazine, sulphamethazine] | 14 | 7 | 77 | – | 61 | – |
| COc1ccc(NS(=O)(=O)c2ccc(N)cc2)nn1 [Sulphamethoxypyridazine, sulphamethoxypyridazine] | 28 | 15 | 74 | 84 | 40 | – |
| COc1cc(NS(=O)(=O)c2ccc(N)cc2)nc(OC)n1 [Sulphadimethoxine, sulphadimethoxine] | – | – | 46 | – | 36 | 97 |

— EP0874242A1, “Device and apparatus for the simultaneous detection of multiple analytes” (Randox Laboratories Ltd., priority 1997, dated 1998)
